Data as given in patent US11274332B2, “Methods of administering 3,4-diaminopyridine” (SERB SA, priority 2011, dated 2022).

Assays:
[1] = Rat PK study, IV and oral TID amifampridine phosphate (Example 4); type: in vivo; settings: rat, after amifampridine phosphate
Method: The objective of this study was to determine the absolute bioavailability of amifampridine phosphate and the pharmacokinetics of amifampridine and its 3-N-acetyl metabolite upon single-dose IV and single-day oral dose (TID) administration.
Amifampridine phosphate was administered by IV bolus at 0.8 mg/kg (in saline) to 6 rats/sex and by oral gavage (in water) TID (approximately 6 hours apart) at dose levels of 2, 8, and 25 mg/kg/dose (equivalent to 6, 24, and 75 mg/kg/day) to 12 rats/sex/group, with oral Dose 1 given to fasted rats and Dose 2 and 3 with food ad libitum. For IV bolus dose and oral Dose 1 (dose administration No. 1), blood samples were collected from three animals/sex/timepoint at predose and 0.083 (IV only), 0.17, 0.25, 0.33, 0.5, 0.75, 1, 1.25 (IV only), 1.5, 2, 2.5, 3, and 6 hours post-dose; 0.17, 0.5, and 6 hours following the second oral dose (dose administration No. 2); and 0.17, 0.25, 0.33, 0.5, 0.75, 1, 1.5, 2, 3, 4, 6, 8, and 10 hours following the third oral dose (dose administration No. 3). The second and third oral doses were given at 6 and 12 hours, respectively, after the first dose. LC-MS/MS was used to quantify amifampridine, 3-N-acetyl and 4-N-acetyl amifampridine metabolites in rat plasma samples. […] Noncompartmental analysis was applied to the mean plasma amifampridine and 3-N-acetyl metabolite concentration data for male and female rats. […]

hKv1.7 = biological target: T1, hKv1.7 (Homo sapiens, UniProt Q96RP8); assay: Whole cell patch clamp inhibition of hKv1.7 current in transiently transfected CHO cells (Example 5); type: cell-based; settings: 10,000 μM in HB-PS
T1 construct: expressed in transfected cells; host or cells: CHO cells (transient transfection)
T1 sequence (Q96RP8 whole entry): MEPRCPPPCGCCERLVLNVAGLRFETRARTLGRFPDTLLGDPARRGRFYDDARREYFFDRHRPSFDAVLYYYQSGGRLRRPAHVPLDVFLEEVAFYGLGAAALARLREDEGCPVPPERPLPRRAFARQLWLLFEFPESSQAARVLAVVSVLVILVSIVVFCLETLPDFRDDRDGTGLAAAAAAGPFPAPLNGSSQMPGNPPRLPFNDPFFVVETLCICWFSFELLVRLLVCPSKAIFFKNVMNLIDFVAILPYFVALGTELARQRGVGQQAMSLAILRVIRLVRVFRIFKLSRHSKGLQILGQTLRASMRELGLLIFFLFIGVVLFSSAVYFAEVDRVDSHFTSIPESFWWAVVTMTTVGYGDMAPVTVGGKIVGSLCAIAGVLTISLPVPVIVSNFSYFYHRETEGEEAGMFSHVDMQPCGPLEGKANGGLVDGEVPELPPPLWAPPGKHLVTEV
Method: Chemicals used in solution preparation were purchased from Sigma-Aldrich (St. Louis, Mo.), unless otherwise noted, and were of ACS reagent grade purity or higher. Stock solutions of each test article (100.104 mM and 1.00 mM 3,4-DAP phosphate and 100.023 mM and 336.335 mM N-(4-aminopyridin-3-yl) acetamide HCl) were prepared in sterile water, stored refrigerated and used within one day. […] All test article solutions contained 3% sterile water. The test articles were prepared in sufficient volume to run the assay (typically 50 mL).
CHO cells, transiently transfected with hKv1.7, were cryopreserved in 90% FBS and 10% DMSO. Frozen vials of cells were thawed rapidly in a 37° C. water bath. Cells were transferred to a 15 mL conical tube, 10 mL of growth media (Ham's/F12-PS/10% FBS) was added, the suspension was gently mixed and the tube was centrifuged at approximately 250×g for 5 min. The medium was removed, the cell pellet was resuspended in 20 mL of medium, and cells were triturated to disperse cell clumps. For electrophysiology use, 2 mL of the cell suspension was plated in each 35 mm cell culture dish. Recording began 2-3 hours after plating once the cells settled out of the media and adhered to the bottom of the culture dish. […]
Cells were transferred to the recording chamber and superfused with vehicle control solution. […] Onset and steady state inhibition of hKv1.7 current due to the test article was measured using a pulse pattern with fixed amplitudes (depolarization: +10 mV amplitude, 300 ms duration) repeated at 10-second intervals from a holding potential of −80 mV. Current amplitude was measured at the end of the step to +10 mV. Current was monitored until a new steady state was achieved. […] The IC50 for sustained current was calculated for 3,4-DAP phosphate salt.
For 3,4-DAP phosphate salt, the concentration-response relationship was evaluated at seven concentrations (1, 10, 30, 100, 300, 1000 and 3000 μM) and for N-(4-aminopyridin-3-yl) acetamide HCl salt, the concentration-response relationship was evaluated at three concentrations (100, 1000 and 3000 μM).

Row | Cmax in plasma [1] | solubility in test formulation (hKv1.7) | Structure (SMILES)
1 | < 25 ng/mL |  | CC(=O)Nc1ccncc1N [4-N-acetyl metabolite]
2 |  | visible precipitate was observed | CC(=O)Nc1cnccc1N.Cl [N-(4-aminopyridin-3-yl) acetamide HCl]
